Test: Antagonist activity at CCR5 in IL-10 stimulated human PBMC cells assessed as MIP-1beta induced chemotaxis

| SMILES | IC50 |
| --- | --- |
| Cc1ncnc(C)c1C(=O)N1CCC(C)(N2CCN(C3CCc4cc(C(F)(F)F)ccc43)[C@@H](C)C2)CC1 (stereo partly drawn) [4,6-Dimethyl-5-[(4-methyl-4-{(3S)-3-methyl-4-[5-(trifluoromethyl)-2,3-dihydro-1H-inden-1-yl]piperazin-1-yl}piperidin-1-yl)carbonyl]pyrimidine] | 1.2 nM |
| Cc1ncnc(C)c1C(=O)N1CCC(C)(N2CCN(C3CCc4cc(Br)ccc43)[C@@H](C)C2)CC1 (stereo partly drawn) [5-({4-[(3S)-4-(5-Bromo-2,3-dihydro-1H-inden-1-yl)-3-methylpiperazin-1-yl]-4-methylpiperidin-1-yl}carbonyl)-4,6-dimethylpyrimidine] | 1.1 nM |
| CO[C@@H]1Cc2cc(C(F)(F)F)ccc2[C@H]1N1CCN(C2(C)CCN(C(=O)c3c(C)ncnc3C)CC2)C[C@@H]1C [5-[(4-(3S)-4-[(1R,2R)-2-methoxy-5-(trifluoromethyl)-2,3-dihydro-1H-inden-1-yl]-3-methylpiperazin-1-yl-4-methylpiperidin-1-yl)carbonyl]-4,6-dimethylpyrimidine] | 3.5 nM |
